Source: article PMC12612990, “PNA5, a glycosylated angiotensin-(1−7) mas receptor agonist for vascular dementia: A two species toxicology and toxicokinetic study” (Toxicology Reports, 2025)
Peptide text beside a SMILES is read from it. * marks the point of attachment. βGlc = OC[C@H]1O[C@@H](*)[C@H](O)[C@@H](O)[C@@H]1O

Tests used:
[1] = test system: male Beagle dogs; assay: Cardiovascular safety evaluation after a single subcutaneous dose in male Beagle dogs; assay type: in vivo, dog; settings: single s.c. injection 1, 5 or 20 mg/kg
Protocol: PNA5 -related cardiovascular effects were evaluated in male Beagle dogs at dose levels of 1, 5, or 20 mg/kg. To evaluate the effects of PNA5 when administered subcutaneously on the cardiovascular system the following parameters were measured including clinical observations, heart rate, arterial blood pressure (systolic, diastolic, and mean), pulse pressure, body temperature, and ECG waveforms (from which ECG waveform morphologies and ECG intervals PR, QRS, QT, and heart rate corrected QT [QTc] were derived).

[2] = test system: Sprague Dawley rats; assay: 28-day repeat-dose subcutaneous toxicology study (main and recovery) in Sprague Dawley rats; assay type: in vivo, rat
Protocol: Rats used in studies were inspected upon receipt for good health and were acclimated for 7 days at a minimum. Male and female rats were randomly selected for one of the four treatment groups upon receipt. Group 1 rats received vehicle control (0.9 % sodium chloride (saline) for injection, USP) subcutaneously for 28 days. Rats in groups 2–4 received PNA5 at 1, 5, or 40 mg/kg/day subcutaneously for 28 days (Table 1). Rats for all studies were dosed once daily for 28 consecutive days via subcutaneous bolus injection. The first day of dosing was based on day 1 body weights. Toxicokinetic study animals were dosed in the same fashion as for the main and recovery study animals.
Rats are observed at least twice daily (morning and afternoon) beginning upon arrival through termination/release for mortality. For the toxicology main study, 10 rats per sex were randomly assigned to groups 1–4. 5 rats per sex were assigned to groups 1 (control) and group 4 (PNA5 at 40 mg/kg/day) for the toxicology recovery study. The number of animals used for the toxicokinetic groups was calculated to meet a sufficient number of animals to provide samples for toxicokinetic analysis while minimizing the number of blood collections per animal.
After 28 treatments, animals that were a part of the main and toxicokinetic study were scheduled for euthanasia on day 29, during which the necropsy measures were collected for the main study animals. Rats that were a part of the recovery animal study started the recovery period on day 29 and were scheduled for euthanasia on day 57, during which the same necropsy measures were collected. Animals were euthanized for humane reasons or at study termination via carbon dioxide inhalation followed by exsanguination via the vena cava for necropsy. Main Study and Recovery animals were fasted overnight prior to the scheduled necropsy. Following the final blood collection, animals in the toxicokinetic studies were euthanized by inhalation of carbon dioxide but were not exsanguinated for necropsy.
The following parameters and end points were evaluated in this study: mortality, clinical observations, body weights, body weight gains, food consumption, ophthalmology, clinical pathology parameters (hematology, coagulation, clinical chemistry, and urinalysis), toxicokinetic parameters, organ weights, and macroscopic and microscopic examinations.
Animals were observed daily. On days with dosing, observations were made 10–30 min postdosing. During the dosing, observations included but were not limited to the following: Changes in skin on the whole animal and at the injection site, fur, eyes, mucous membrane, and respiratory functions.
A detailed clinical observation was performed 1 week prior to randomization, on the date of randomization, and then weekly during the study period, with the last observation on the day of the scheduled necropsy.
The injection site was shaved and marked for identification and evaluation during the study. The injection site was collected at necropsy.
Rats were weighed within 4 days of receipt, on the day of randomization, daily during the study, and on the day of the scheduled necropsies. Dogs were weighed one week prior to randomization (± 2 days), on the day of randomization, on Day 1 (prior to dosing), weekly (± 2 days) during the study period, on the day prior to the scheduled necropsies, and on the day of the scheduled necropsy.
Rats' food consumption was measured quantitatively once weekly beginning on Day 1 and persisting throughout the study. Dogs' food consumption was measured daily beginning on Day 1 and persisting throughout the study.
Ophthalmic examinations were conducted by a board-certified veterinary ophthalmologist using an indirect ophthalmoscope and slit lamp biomicroscope. Prior to examination, animals will be treated with a mydriatic agent. […]

[3] = test system: Beagle dogs; assay: 28-day repeat-dose subcutaneous toxicology study (main and recovery) in Beagle dogs
[4] = rats, 1, 5, 40 mg/kg/day s.c. for 28 days
[5] = rats, main study, day 29 necropsy
[6] = rats, recovery study, 40 mg/kg/day vs control
[7] = dogs, 1, 5, 20 mg/kg/day s.c. for 28 days
[8] = dogs, main study, day 29 necropsy

With CC[C@H](C)[C@H](NC(=O)[C@H](Cc1ccc(O)cc1)NC(=O)[C@@H](NC(=O)[C@H](CCCNC(=N)N)NC(=O)[C@@H](N)CC(=O)O)C(C)C)C(=O)N[C@@H](Cc1c[nH]cn1)C(=O)N[C@@H](CO[C@@H]1O[C@H](CO)[C@@H](O)[C@H](O)[C@H]1O)C(N)=O [PNA5, Ang-1–6-Ser-O-Glu-NH2] (H-DRVYIHS(βGlc)-NH2) the “clinical observations, heart rate, arterial blood pressure, pulse pressure, body temperature and ECG waveforms” value [1] was “no effect”, the “tolerability (mortality, adverse findings)” value ([2]; Sprague-Dawley rats, main and recovery studies, s.c. bolus once daily 28 days, 1, 5, 40 mg/kg/day) was “well tolerated at all doses with no effects on mortality or adverse findings” and the “mixed cell infiltration at the subcutaneous dorsoscapular injection site” value ([2]; rats, 40 mg/kg/day group females, main study, considered within the expected response to the injection procedure) was “increase in incidence and severity of mixed cell infiltration”. For the same compound, the “prostate/seminal vesicle weight normalized to body weight or brain weight vs control” value ([2]; rats, 40 mg/kg/day group males, recovery study, considered incidental, absolute weights not different) was “significantly higher”, the “body weights and body weight gains” value [2, 4] was “unaffected” and the food consumption [2, 4] was “unaffected”. For the same compound, the clinical observations ([2]; rats, 1, 5, 40 mg/kg/day subq for 28 days, main and recovery study) was “no test article-related clinical observations”, the survival ([2]; rats, 1, 5 and 40 mg/kg/day s.c. for 28 days) was “All animals survived until the scheduled euthanasia” and the ophthalmic examinations ([2]; rats, all test article-treated groups) was “No ophthalmic lesions indicative of toxicity were observed”. For the same compound, the “hematology, coagulation, clinical chemistry and urinalysis parameters” value ([2]; rats, main study, all dose levels) was “unaffected”, the macroscopic findings [2, 5] was “no test article-related macroscopic findings” and the microscopic findings [2, 5] was “no test article-related microscopic findings”. The organ weights [2, 5] was “no test article-related organ weight changes”, the microscopic findings ([2]; rats, recovery study) was “No test article-related microscopic findings were noted” and the macroscopic findings [2, 6] was “no test article-related macroscopic findings”. The organ weights [2, 6] was “no test article-related organ weight changes”, the “tolerability (mortality, adverse findings)” value ([3]; Beagle dogs, main and recovery studies, s.c. bolus once daily 28 days, 1, 5, 20 mg/kg/day) was “well tolerated at all doses with no effects on mortality or adverse findings” and the “no-observed-adverse-effect-level (NOAEL)” value ([3]; Beagle dogs, s.c. once daily for 28 days) was 20 mg/kg/day. The “body weights and body weight gains” value [3, 7] was “unaffected”, the clinical observations [3, 7] was “no test article-related clinical observations” and the electrocardiography [3, 7] was “no test article-related clinical observations or effects”. The food consumption [3, 7] was “unaffected”, the organ weights [3, 7] was “no test article-related clinical observations or effects” and the survival ([3]; dogs, 1, 5 and 20 mg/kg/day s.c. for 28 days) was “All animals survived until the scheduled euthanasia”. The ophthalmic examinations ([3]; dogs, all test article-treated groups) was “No ophthalmic lesions indicative of toxicity were observed”, the “hematology, coagulation, clinical chemistry and urinalysis parameters” value ([3]; dogs, main study) was “unaffected” and the macroscopic findings [3, 8] was “No test article-related macroscopic findings were noted”. For the same compound, the microscopic findings [3, 8] was “No test article-related microscopic findings were noted”, the macroscopic findings ([3]; dogs, recovery study, day 43) was “No test article-related macroscopic findings were noted” and the microscopic findings ([3]; dogs, recovery study, day 43) was “No test article-related microscopic findings were noted”. For the same compound, the organ weights ([3]; dogs, recovery study, day 43) was “no test article-related organ weight changes” and the “subcutaneous injection sites with dark red subcutaneous foci” value ([3]; dogs, treated group animals, main study, lacked a dose response, considered an effect of subcutaneous injection) was 5 of 96.
